Read-outs that look alike come from different tables or passages of the source.
Columns and labels:
Assay type in all cases: cell-based
[1] = tested on: Acanthamoeba castellanii (ATCC50370) cysts; test: Encystation drug susceptibility / excystation viability assay, 30 day recovery, A. castellanii cysts; conditions: ATCC50370, 720 h, read-out: A. castellanii 30 day MCC
Description: (§1) The trophozoites of Acanthamoeba were harvested by mechanical detachment and collected via centrifugation at 4000 rpm at 4° C. for 5 minutes. The trophozoites were washed in 10 mL of Neff's Encystment Media (NEM). NEM composition is 20 mM Tris-HCL [pH 8.8] (2.43 g/L), 100 mM KCL (7.46 g/L), 8 mM MgSO4 (962.96 mg/L), 0.4 mM CaCL2 58.81 mg/L) and 1 mM NaHCO3 (84.01 mg/L) (Neff et al. 1964). All reagents were bought from Sigma Aldrich. Centrifugation of the trophozoites was repeated to ensure any residual growth medium was removed. The pellet was resuspended in a final volume of 15 mL of NEM, cultured in 75 cm^2 corning tissue culture flasks and incubated vertically in a thermal shaker, shaken at 100 rpm at 37° C. for 72 hours to produce fully matured cysts. NEM was supplemented with 250 μg of penicillin/streptomycin. Fresh cysts were produced each time for any experimentation.
(§2) At 72 hours the cysts were harvested using a cell scraper and collected via centrifugation at 4000 rpm at 25° C. for 10 minutes. The cells were washed twice in 10 mL of HyClone™ water, Molecular Biology Grade, and centrifugation was repeated to ensure the removal of any residual NEM. The cell suspension was washed with 0.5% sodium dodecyl sulphate (SDS) to remove any remaining trophozoites and immature cysts. The fully mature cysts were further washed twice with 10 mL of HyClone™ water and 1% NEM, centrifugation was repeated to remove any residue of SDS. The concentration of mature cysts was determined using a haemocytometer and adjusted to 1×10^4 cysts/mL in NEM.
(§3) All test compounds were prepared as 5 mg/mL stock solutions in dimethylsulfoxide (DMSO). All compounds were diluted in NEM, serially diluted in 2-fold dilutions 6 or 11 times, yielding a screening concentration range of 1.56 μg/mL to 50 μg/mL or 48 ng/mL to 50 μg/mL with a final highest screening concentration of 1% DMSO.
(§4) Based on this, a strain specific test period and also a 30 day non-specific recovery time were considered. For the 30 day recovery period, the media was changed 5 times to ensure the contents of wells dis not evaporate and have an effect within the results of the assay.
(§5) 90 μL of 1×10^4 Cysts/ml and 10 μL of experimental compounds from the screening plates were produced according to the protocols above and combined into a Corning clear 96 well treated tissue culture plate. Control wells include cysts in non-drug treated, 1% DMSO, NEM (to be used for negative growth control), NEM Blank, PG blank and cysts in non-drug treated, 1% DMSO, PG (to excyst cells and to be used for positive growth control). The total well volume for all wells was 100 μL. The drug exposed plates were screened at 27° C. for 6 or 24 hours only. At the exposure time point the plates were centrifuged at 4000 rpm at 25° C. for 10 minutes and washed twice with phosphate-buffered saline (PBS) to remove any residual experimental compound.
(§6) Once the plate(s) underwent the Encystation drug susceptibility process, all wells except the negative growth control and NEM blank wells received PG growth medium. All plates were left to recover at 27° C. for the strain specific time period of 5, 9 or 11 days depending on the species of Acanthamoeba. At each of the strain specific time points the plates were removed from incubation and microscopically analysed (qualitatively) for the excystation process for the emergence of excysted viable trophozoites or residual cysts. The presence of excysted trophozoites indicated viable amoebae (non-cystistatic or cysticidal—no effect) and the absence of excystation was considered as cystistatic/cysticidal effects.

[2] = tested on: Acanthamoeba culbertsoni (ATCC30171) cysts; test: Encystation drug susceptibility / excystation viability assay, 30 day recovery, A. culbertsoni cysts; conditions: ATCC30171, 720 h, read-out: A. culbertsoni 30 day MCC
Description: as §1, §2, §3, §4, §5, §6

[3] = tested on: Acanthamoeba healyi cysts; test: Encystation drug susceptibility / excystation viability assay, 30 day recovery, A. healyi cysts; conditions: 720 h, read-out: A. healyi 30 day MCC
Description: as §1, §2, §3, §4, §5, §6

[4] = tested on: Balamuthia mandrillaris trophozoites; test: Activity against Balamuthia mandrillaris trophozoites; conditions: for IC50: Balamuthia mandrillaris
Description: Balamuthia mandrillaris trophozoites were thawed and grown in 10 ml of BM-3 medium. […] After autoclaving, complete BM-3 media was produced by the addition of 10% fetal bovine serum and 125 μg of penicillin/streptomycin antibiotics. The table describes all of the compounds and the activity against Balamuthia trophozoites compared to the activity for select Acanthamoeba trophozoites shown in Table 5.

[5] = tested on: Acanthamoeba castellanii trophozoites; test: Activity against Acanthamoeba castellanii trophozoites
Description: Two Acanthamoeba species (Acanthamoeba castellanii—ATCC50370 and Acanthamoeba culbertsoni—ATCC30171) were bought from the American Type Culture Collection (ATCC) and one species (Acanthamoeba healyi) was donated from the Centers for Disease Control and Prevention (CDC) for our experimentations. Trophozoites were thawed and grown in 10 mL of a nutrient rich Peptose-Glucose (PG) media. The PG media composition is 83.26 mM Glucose (15 g/L), Protease Peptone (15 g/L, yeast extract is manufactured under controlled conditions to retain its vitamin content and other nutritive values such as free amino acids, no other composition information given), 2.2 mM KH2PO4 (300 mg/L), 2.97 μM Thiamine (1 mg/L), 99.86 μM L-methionine (14.9 mg/L), 4.6 μM Vitamin B12 (83.3 μl of 0.1 mg/mL stock/L) and 68 μM Biotin (83.3 μl of 0.2 mg/mL stock/L). […] One mL/L of the salt solution was added to the media stock prior to autoclaving. All reagents were purchased from Sigma Aldrich except the Glucose which was purchased from Alfa Aesar. The cell pellet was resuspended in a final volume of 10 mL of PG media, cultured in 75 cm^2 coming tissue culture flasks and incubated at 27° C. PG was supplemented with 125 μg of penicillin/streptomycin. Sub-culturing occurred twice per week to allow the continued growth and development of the Acanthamoeba trophozoites. […]

A549 cells = test: Toxicity to human A549 cells
[6] = read-out: Balamuthia mandrillaris IC50
[7] = read-out: A. cactellanii Trophozoite IC50
[8] = read-out: Acanthamoeba castellanii IC50
[9] = Homo sapiens, A549, read-out: A549 cell IC50
[10] = minimum cysticidal concentration, no recovery up to 30 days
[11] = trophozoites, n = 2, read-out: Balamuthia mandrillaris IC50
[12] = trophozoites, n = 2, Table 6, read-out: Acanthamoeba castellanii IC50
[13] = human A549 cells, read-out: A549 cell IC50

## CC(C)NC(=N)c1ccc2nc(-c3ccc(Oc4ccc(-c5nc6ccc(C(=N)NC(C)C)cc6[nH]5)c(Br)c4)cc3F)[nH]c2c1 [Compound E, 2-(2-Bromo-4-(3-fluoro-4-(6-(N-isopropylcarbamimidoyl)-1H-benzo[d]imidazol-2-yl)phenoxy)phenyl)-N-isopropyl-1H-benzo[d]imidazole-6-carboximidamide]
[1]
  MCC: 2750 nM
[2]
  MCC: 1830 nM
[3]
  MCC: 1.83 µM
[4]; [6]
  IC50: 110 nM
[5]; [7]
  IC50: 220 nM
[5]; [8]
  IC50: 770 nM
A549 cells; [9]
  IC50: 3790 nM

## CC(C)NC(=N)c1ccc2nc(-c3cc(F)c(Oc4ccc(-c5nc6ccc(C(=N)NC(C)C)cc6[nH]5)c(Br)c4)c(F)c3)[nH]c2c1 [Compound F, 2-(2-Bromo-4-(2,6-difluoro-4-(6-(N-isopropylcarbamimidoyl)-1H-benzo[d]imidazol-2-yl)phenoxy)phenyl)-N-isopropyl-1H-benzo[d]imidazole-6-carboximidamide]
[1]
  MCC: 5290 nM
[2]
  MCC: 5290 nM
[3]
  MCC: 3.52 µM
[4]; [6]
  IC50: 590 nM
[5]; [7]
  IC50: 590 nM
[5]; [8]
  IC50: 590 nM
A549 cells; [9]
  IC50: 13700 nM

## CC(C)NC(=N)c1ccc2nc(-c3ccc(Oc4cc(F)c(-c5nc6ccc(C(=N)NC(C)C)cc6[nH]5)c(F)c4)cc3Br)[nH]c2c1 [Compound G, 2-(2-Bromo-4-(3,5-difluoro-4-(6-(N-isopropylcarbamimidoyl)-1H-benzo[d]imidazol-2-yl)phenoxy)phenyl)-N-isopropyl-1H-benzo[d]imidazole-6-carboximidamide]
[1]
  MCC: 1750 nM
[2]
  MCC: 1750 nM
[3]
  MCC: 1.75 µM
[4]; [6]
  IC50: 110 nM
[5]; [7]
  IC50: 260 nM
[5]; [8]
  IC50: 260 nM
A549 cells; [9]
  IC50: 6020 nM

## CC(C)NC(=N)c1ccc2nc(-c3ccc(Oc4ccc(-c5nc6ccc(C(=N)NC(C)C)cc6[nH]5)c(F)c4F)cc3Br)[nH]c2c1 [Compound H, 2-(2-Bromo-4-(2,3-difluoro-4-(6-(N-isopropylcarbamimidoyl)-1H-benzo[d]imidazol-2-yl)phenoxy)phenyl)-N-isopropyl-1H-benzo[d]imidazole-6-carboximidamide]
[1]
  MCC: 1880 nM
[2]
  MCC: 1880 nM
[3]
  MCC: 1.88 µM
[4]; [6]
  IC50: 100 nM
[5]; [7]
  IC50: 270 nM
[5]; [8]
  IC50: 270 nM
A549 cells; [9]
  IC50: 3110 nM

## CC(C)NC(=N)c1ccc2nc(-c3ccc(Oc4ccc(-c5nc6ccc(C(=N)NC(C)C)cc6[nH]5)cc4F)cc3)[nH]c2c1 [Compound I, 2-(3-Fluoro-4-(4-(6-(N-isopropylcarbamimidoyl)-1H-benzo[d]imidazol-2-yl)phenoxy)phenyl)-N-isopropyl-1H-benzo[d]imidazole-6-carboximidamide]
[1]; [10]
  MCC: 4200 nM
[2]; [10]
  MCC: 8410 nM
[3]; [10]
  MCC: 4.2 µM
[4]; B. mandrillaris, versus pentamidine 29.38 μM
  times more potent than pentamide as reported in Schuster et al.: 587.6
[4]; read-out: IC50 against B. mandrillaris
  IC50: 50 nM
[4]; [11]
  IC50: 50 nM
[5]; [12]
  IC50: 710 nM
A549 cells; [13]
  IC50: 3460 nM

## CC(C)NC(=N)c1ccc2nc(-c3ccc(Oc4ccc(-c5nc6ccc(C(=N)NC(C)C)cc6[nH]5)c(Br)c4)c(Br)c3)[nH]c2c1 [Compound R, 2-(2-Bromo-4-(2-bromo-4-(6-(N-isopropylcarbamimidoyl)-1H-benzo[d]imidazol-2-yl)phenoxy)phenyl)-N-isopropyl-1H-benzo[d]imidazole-6-carboximidamide]
[1]; [10]
  MCC: 2660 nM
[2]; [10]
  MCC: 2660 nM
[3]; [10]
  MCC: 3.56 µM
[4]; [11]
  IC50: 200 nM
[5]; [12]
  IC50: 550 nM
A549 cells; [13]
  IC50: 4180 nM

## COc1cc(Oc2ccc(-c3nc4ccc(C(=N)NC(C)C)cc4[nH]3)c(Cl)c2)ccc1-c1nc2ccc(C(=N)NC(C)C)cc2[nH]1 [Compound S]
[1]; [10]
  MCC: 2810 nM
[2]; [10]
  MCC: 930 nM
[3]; [10]
  MCC: 1.87 µM
[4]; [11]
  IC50: 60 nM
[5]; [12]
  IC50: 2790 nM
A549 cells; [13]
  IC50: 2950 nM

## CCC(CC)NC(=N)c1ccc2nc(-c3ccc(Oc4ccc(-c5nc6ccc(C(=N)NC(CC)CC)cc6[nH]5)cc4)cc3)[nH]c2c1 [Compound T]
[1]; [10]
  MCC: 11400 nM
[2]; [10]
  MCC: 5710 nM
[3]; [10]
  MCC: 7.61 µM
[4]; [11]
  IC50: 140 nM
[5]; [12]
  IC50: 1130 nM
A549 cells; [13]
  IC50: 31400 nM

## COc1cc(-c2nc3ccc(C(=N)NC(C)C)cc3[nH]2)ccc1Oc1ccc(-c2nc3ccc(C(=N)NC(C)C)cc3[nH]2)cc1F [J, 2-(3-Fluoro-4-(4-(6-(N-isopropylcarbamimidoyl)-1H-benzo[d]imidazol-2-yl)-2-methoxyphenoxy)phenyl)-N-isopropyl-1H-benzo[d]imidazole-6-carboximidamide]
[1]; [10]
  MCC: 11200 nM
[2]; [10]
  MCC: 7470 nM
[3]; [10]
  MCC: 9.34 µM
[4]; [11]
  IC50: 80 nM
[5]; [12]
  IC50: 950 nM
A549 cells; [13]
  IC50: 4030 nM

## COc1cc(Oc2ccc(-c3nc4ccc(C(=N)NC(C)C)cc4[nH]3)cc2F)ccc1-c1nc2ccc(C(=N)NC(C)C)cc2[nH]1 [K, 2-(3-Fluoro-4-(4-(6-(N-isopropylcarbamimidoyl)-1H-benzo[d]imidazol-2-yl)-3-methoxyphenoxy)phenyl)-N-isopropyl-1H-benzo[d]imidazole-6-carboximidamide]
[1]; [10]
  MCC: 9650 nM
[2]; [10]
  MCC: 7890 nM
[3]; [10]
  MCC: 7.72 µM
[4]; [11]
  IC50: 140 nM
[5]; [12]
  IC50: 1100 nM
A549 cells; [13]
  IC50: 4030 nM

## CC(C)NC(=N)c1ccc2nc(-c3ccc(Oc4ccc(-c5nc6ccc(C(=N)NC(C)C)cc6[nH]5)c(Cl)c4)cc3Cl)[nH]c2c1 [L, 2-2′-(Oxybis(2-chloro-4,1-phenylene))bis(N-isopropyl-3H-benzo[d]imidazole-6-carboximidamide)]
[1]; [10]
  MCC: 2880 nM
[2]; [10]
  MCC: 2880 nM
[3]; [10]
  MCC: 2.88 µM
[4]; [11]
  IC50: 80 nM
[5]; [12]
  IC50: 390 nM
A549 cells; [13]
  IC50: 4170 nM
